Earlier results on one compound are cited in paper PMC11094875, “Cholecystokinin B receptor agonists alleviates anterograde amnesia in cholecystokinin-deficient and aged Alzheimer's disease mice” (Alzheimer's Research & Therapy, 2024).

A word on the half-life: it is the time in which the quantity being followed falls by half.

Read-outs that look alike come from different tables or passages of the source.

For data set [1] the following is noted: as stated in the MWM method for the dosing schedule; no reference given.
For data set [2] the following is noted: human plasm ref 31.
For data set [3] the following is noted: rat plasm ref 31.

Regarding `CSCC[C@H](NC(=O)[C@@H](N)Cc1c[nH]c2ccccc12)C(=O)N[C@@H](CC(=O)O)C(=O)N[C@@H](Cc1ccccc1)C(N)=O` [CCK-4, CCK tetrapeptide], the values for the half-life result in data set [1], in data set [2] and in data set [3] were “less than 5 min”, 13 min and < 1 min, respectively.
